Measurements as given in US9067881B2, “4-tolyl-ethynyl-octahydro-indole-1-ester derivatives” (NOVARTIS AG, priority 2011, dated 2015).
≈ marks a conversion by molar mass, not a printed value.

test: Solubility in Cl free phosphate buffer pH 6.8; assay type: physicochemical; conditions: aqueous buffer; Cl free phosphate buffer (0.067 M) pH 6.8

Row | SMILES | solubility [µg/mL]
1 | CCCC(=O)O[C@@]1(C#Cc2cccc(C)c2)CCC[C@@H]2[C@H]1CCN2C(=O)OC [Example 15, (3aR,4S,7aR)-4-Butyryloxy-4-m-tolylethynyl-octahydro-indole-1-carboxylic acid methyl ester] | 2 (≈ 5.22 µM)
2 | CCNC(=O)CCCC(=O)O[C@@]1(C#Cc2cccc(C)c2)CCC[C@@H]2[C@H]1CCN2C(=O)OC [Example 68, (3aR,4S,7aR)-methyl 4-(5-(ethylamino)-5-oxopentanoyloxy)-4-(m-tolylethynyl)octahydro-1H-indole-1-carboxylate] | 386 (≈ 849 µM)
3 | COC(=O)CCCC(=O)O[C@@]1(C#Cc2cccc(C)c2)CCC[C@@H]2[C@H]1CCN2C(=O)OC [Example 56, (3aR,4S,7aR)-1-(methoxycarbonyl)-4-(m-tolylethynyl)octahydro-1H-indol-4-yl methyl glutarate] | 97 (≈ 220 µM)
4 | CCCCC(=O)O[C@@]1(C#Cc2cccc(C)c2)CCC[C@@H]2[C@H]1CCN2C(=O)OC [Example 22, (3aR,4S,7aR)-4-Pentanoyloxy-4-m-tolylethynyl-octahydro-indole-1-carboxylic acid methyl ester] | < 2
5 | CNC(=O)CC(=O)O[C@@]1(C#Cc2cccc(C)c2)CCC[C@@H]2[C@H]1CCN2C(=O)OC [Example 61, (3aR,4S,7aR)-methyl 4-(3-(methylamino)-3-oxopropanoyloxy)-4-(m-tolylethynyl)octahydro-1H-indole-1-carboxylate] | 11 (≈ 26.7 µM)
6 | COC(=O)N1CC[C@@H]2[C@H]1CCC[C@]2(C#Cc1cccc(C)c1)OC(=O)CCCC(N)=O [Example 55, (3aR,4S,7aR)-methyl 4-(5-amino-5-oxopentanoyloxy)-4-(m-tolylethynyl)octahydro-1H-indole-1-carboxylate] | 93 (≈ 218 µM)
7 | CCCNC(=O)CCCC(=O)O[C@@]1(C#Cc2cccc(C)c2)CCC[C@@H]2[C@H]1CCN2C(=O)OC [Example 70, (3aR,4S,7aR)-methyl 4-(5-oxo-5-(propylamino)pentanoyloxy)-4-(m-tolylethynyl)octahydro-1H-indole-1-carboxylate] | 32 (≈ 68.3 µM)
8 | CCCNC(=O)CCC(=O)O[C@@]1(C#Cc2cccc(C)c2)CCC[C@@H]2[C@H]1CCN2C(=O)OC [Example 64, (3aR,4S,7aR)-methyl 4-(4-oxo-4-(propylamino)butanoyloxy)-4-(m-tolylethynyl)octahydro-1H-indole-1-carboxylate] | 33 (≈ 72.6 µM)
9 | COC(=O)N1CC[C@@H]2[C@H]1CCC[C@]2(C#Cc1cccc(C)c1)OC(=O)CC(N)=O [Example 60, (3aR,4S,7aR)-methyl 4-(3-amino-3-oxopropanoyloxy)-4-(nm-tolylethynyl)octahydro-1H-indole-1-carboxylate] | 110 (≈ 276 µM)
10 | CCNC(=O)CCC(=O)O[C@@]1(C#Cc2cccc(C)c2)CCC[C@@H]2[C@H]1CCN2C(=O)OC [Example 67, (3aR,4S,7aR)-methyl 4-(4-(ethylamino)-4-oxobutanoyloxy)-4-(m-tolylethynyl)octahydro-1H-indole-1-carboxylate] | 123 (≈ 279 µM)
11 | COC(=O)CCC(=O)O[C@@]1(C#Cc2cccc(C)c2)CCC[C@@H]2[C@H]1CCN2C(=O)OC [Example 62, ((3aR,4S,7aR)-1-(methoxycarbonyl)-4-(m-tolylethynyl)octahydro-1H-indol-4-ylmethyl succinate] | 164
12 | CNC(=O)CCC(=O)O[C@@]1(C#Cc2cccc(C)c2)CCC[C@@H]2[C@H]1CCN2C(=O)OC [Example 58, (3aR,4S,7aR)-methyl 4-(4-(methylamino)-4-oxobutanoyloxy)-4-(m-tolylethynyl)octahydro-1H-indole-1-carboxylate] | 87 (≈ 204 µM)
13 | COC(=O)N1CC[C@@H]2[C@H]1CCC[C@]2(C#Cc1cccc(C)c1)OC(C)=O [Example 13, (3aR,4S,7aR)-4-Acetoxy-4-m-tolylethynyl-octahydro-indole-1-carboxylic acid methyl ester] | 12 (≈ 33.8 µM)
14 | COC(=O)N1CC[C@@H]2[C@H]1CCC[C@]2(C#Cc1cccc(C)c1)OC(=O)CCC(=O)N(C)C [Example 59, (3aR,4S,7aR)-methyl 4-(4-(dimethylamino)-4-oxobutanoyloxy)-4-(m-tolylethynyl)octa hydro-1H-indole-1-carboxylate] | < 2
15 | COCC(=O)O[C@@]1(C#Cc2cccc(C)c2)CCC[C@@H]2[C@H]1CCN2C(=O)OC [Example 10, (3aR,4S,7aR)-4-(2-Methoxy-acetoxy)-4-m-tolylethynyl-octahydro-indole-1-carboxylic acid methyl ester] | 47 (≈ 122 µM)
16 | COC(=O)CC(=O)O[C@@]1(C#Cc2cccc(C)c2)CCC[C@@H]2[C@H]1CCN2C(=O)OC [Example 66, (3aR,4S,7aR)-1-(methoxycarbonyl)-4-(m-tolylethynyl)octahydro-1H-indol-4-yl methyl malonate] | 100 (≈ 242 µM)
17 | COC(=O)N1CC[C@@H]2[C@H]1CCC[C@]2(C#Cc1cccc(C)c1)OC(=O)CCCC(=O)NC(C)C [Example 69, (3aR,4S,7aR)-methyl 4-(5-(isopropylamino)-5-oxopentanoyloxy)-4-(m-tolylethynyl)octahydro-1H-indole-1-carboxylate] | 28 (≈ 59.8 µM)
18 | COC(=O)N1CC[C@@H]2[C@H]1CCC[C@]2(C#Cc1cccc(C)c1)OC(=O)CCC(=O)N1CCCC1 [Example 38, (3aR,4S,7aR)-4-(4-Oxo-4-pyrrolidin-1-yl-butyryloxy)-4-m-tolylethynyl-octahydro-indole-1-carboxylic acid methyl ester] | 27 (≈ 57.9 µM)
19 | CCN(CC)C(=O)CCC(=O)O[C@@]1(C#Cc2cccc(C)c2)CCC[C@@H]2[C@H]1CCN2C(=O)OC [Example 57, (3aR,4S,7aR)-methyl 4-(4-(diethylamino)-4-oxobutanoyloxy)-4-(m-tolylethynyl)octahydro-1H-indole-1-carboxylate] | 19 (≈ 40.5 µM)
20 | CCCCCC(=O)O[C@@]1(C#Cc2cccc(C)c2)CCC[C@@H]2[C@H]1CCN2C(=O)OC [Example 17, (3aR,4S,7aR)-4-Hexanoyloxy-4-m-tolylethynyl-octahydro-indole-1-carboxylic acid methyl ester] | < 2
21 | CCCCCCCC(=O)O[C@@]1(C#Cc2cccc(C)c2)CCC[C@@H]2[C@H]1CCN2C(=O)OC [Example 18] | < 2

test: In-vitro clearance in rat liver microsomes (metabolic stability, compound depletion); conditions: not given

Row | SMILES | microsomal CLint at 1 μM [µL/min/mg]
22 | COC(=O)N1CC[C@@H]2[C@H]1CCC[C@]2(C#Cc1cccc(C)c1)OC(=O)[C@@H](N)CC(C)C [Example 5, (3aR,4S,7aR)-4-((S)-2-Amino-4-methyl-pentanoyloxy)-4-m-tolylethynyl-octahydro-indole-1-carboxylic acid methyl ester] | 48
23 | COC(=O)N1CC[C@@H]2[C@H]1CCC[C@]2(C#Cc1cccc(C)c1)OC(=O)[C@@H](N)CC(C)(C)C [Example 34, (3aR,4S,7aR)-4-((S)-2-Amino-4,4-dimethyl-pentanoyloxy)-4-m-tolylethynyl-octahydro-indole-1-carboxylic acid methyl ester] | 495
24 | COC(=O)N1CC[C@@H]2[C@H]1CCC[C@]2(C#Cc1cccc(C)c1)OC(=O)Cc1ccccc1 [Example 43, (3aR,4S,7aR)-methyl 4-(2-phenylacetoxy)-4-(m-tolylethynyl)octahydro-1H-indole-1-carboxylate] | 36
25 | CCC[C@H](N)C(=O)O[C@@]1(C#Cc2cccc(C)c2)CCC[C@@H]2[C@H]1CCN2C(=O)OC [Example 32, (3aR,4S,7aR)-4-((S)-2-Amino-pentanoyloxy)-4-m-tolylethynyl-octahydro-indole-1-carboxylic acid methyl ester] | 420
26 | CC[C@H](C)[C@H](NC)C(=O)O[C@@]1(C#Cc2cccc(C)c2)CCC[C@@H]2[C@H]1CCN2C(=O)OC [Example 37, (3aR,4S,7aR)-4-((2S,3S)-3-Methyl-2-methylamino-pentanoyloxy)-4-m-tolylethynyl-octahydro-indole-1-carboxylic acid methyl ester] | 693
27 | COC(=O)N1CC[C@@H]2[C@H]1CCC[C@]2(C#Cc1cccc(C)c1)OC(=O)c1ccc(Br)cc1 [Example 48, (3aR,4S,7aR)-methyl 4-(4-bromobenzoyloxy)-4-(m-tolylethynyl)octahydro-1H-indole-1-carboxylate] | 26
28 | CN[C@@H](C)C(=O)O[C@@]1(C#Cc2cccc(C)c2)CCC[C@@H]2[C@H]1CCN2C(=O)OC [Example 35, (3aR,4S,7aR)-4-((S)-2-Methylamino-propionyloxy)-4-m-tolylethynyl-octahydro-indole-1-carboxylic acid methyl ester] | 50
29 | CC[C@H](C)[C@H](N)C(=O)O[C@@]1(C#Cc2cccc(C)c2)CCC[C@@H]2[C@H]1CCN2C(=O)OC [Example 33, (3aR,4S,7aR)-4-((2S,3S)-2-Amino-3-methyl-pentanoyloxy)-4-m-tolylethynyl-octahydro-indole-1-carboxylic acid methyl ester] | 660
30 | CN[C@H](C(=O)O[C@@]1(C#Cc2cccc(C)c2)CCC[C@@H]2[C@H]1CCN2C(=O)OC)C(C)C [Example 36, (3aR,4S,7aR)-4-((S)-3-Methyl-2-methylamino-butyryloxy)-4-m-tolylethynyl-octahydro-indole-1-carboxylic acid methyl ester] | 815
31 | COC(=O)N1CC[C@@H]2[C@H]1CCC[C@]2(C#Cc1cccc(C)c1)OC(=O)[C@@H](N)CCSC [Example 6, (3aR,4S,7aR)-4-((S)-2-Amino-4-methylsulfanyl-butyryloxy)-4-m-tolylethynyl-octahydro-indole-1-carboxylic acid methyl ester] | 51
32 | COC(=O)N1CC[C@@H]2[C@H]1CCC[C@]2(C#Cc1cccc(C)c1)OC(=O)c1c(C)cc(C)cc1C [Example 53, (3aR,4S,7aR)-methyl 4-(m-tolylethynyl)-4-(2,4,6-trimethylbenzoyloxy)octahydro-1H-indole-1-carboxylate] | 3.4
